Assay [1] deals with BRAF V600E (Homo sapiens (Human), UniProt P15056, V600E). Briefly: Inhibitory activity against kinase BRAF V600E, Z'-LYTE method (Invitrogen). The following applies: 1 μM compound; read-out: Inhibition (% inhibition at 1 μM) against BRAF V600E. It is filed as biochemical. On the procedure:
Inhibitory activities Inhibitory activities of compounds against BRAF, and BRAF V600E were measured by Invitrogen using Z′-LYTE® Method as briefly described in the following. 4× Test compounds are dissolved in 1% DMSO. […] ATP solutions are diluted to a 4×ATP working concentration in Kinase Buffer (50 mM HEPES pH 7.5, 0.01% BRIJ-35, 10 mM MgCl2, 1 mM EGTA). Reaction started by 30-second shaking of mixture consisting of 2.5 μL 4× test compound, […] and 2.5 μL 4×ATP Solution on Bar-coded Corning, low volume NBS, black 384-well plate (Corning Cat. #3676). Then the mixture was incubated for 60-minute at room temperature for the kinase reaction, followed by addition of 5 μL of a 1:1024 dilution of development reagent A and 30-second plate shake. The mixture was then incubated for another 60-minute at room temperature for development reaction. Fluorescence was read by plate reader. IC50 was calculated by plotting the concentration of compound vs the percentage of inhibition in treated wells using GraphPad Prism 5.
Table 2 and 3 show % inhibition at 1 μM of several compounds of the invention against BRAF and BRAF V600E, respectively, using Z′-LYTE® method.
The scale utilized in Table 4 is as follows: +++ less than 100 nM; and ++ greater than 100 nM.

The target in assay [2] is KDR (VEGFR2) (Homo sapiens (Human), UniProt P35968). Briefly: Inhibitory activity against kinase KDR, Z'-LYTE method (Invitrogen). It is filed as biochemical. The following applies: 1 μM compound; read-out: Inhibition (% inhibition at 1 μM) against KDR. On the procedure: Inhibitory activities of compounds against KDR (VEGFR2) were also measured by Invitrogen using Z′-LYTE® Method as described above with the following modification. The 2× KDR (VEGFR2)/Tyr 01 mixture is prepared in 50 mM HEPES pH 7.5, 0.01% BRIJ-35, 10 mM MgCl2, 1 mM EGTA. The final 10 μL Kinase Reaction consists of 0.5-11.7 ng KDR (VEGFR2) and 2 μM Tyr 01 in 50 mM HEPES pH 7.5, 0.01% BRIJ-35, 10 mM MgCl2, 1 mM EGTA. After the 1 hour Kinase Reaction incubation, 5 μL of a 1:256 dilution of Development Reagent B is added.
The scale utilized in Table 5 is as follows: +++ less than 100 nM; and ++ greater than 100 nM

Assay [3] relates to A375 cells. Briefly: Inhibition of cancer cell growth, MTT or MTS assay, A375. The settings on record: Homo sapiens, A-375; 72 h incubation. It is filed as cell-based. The protocol:
(§1) Inhibition of cell growth by compounds was measured using MTT or MTS assay. Tumor cell lines were purchased from ATCC (American Type Culture Collection, Manassas, Va.). All cell lines were maintained in RPMI 1640 (Hyclone) supplemented with 10% fetal bovine serum (FBS, Hyclone), glutamine (2 mM, Hyclone), and antibiotics (penicillin 100 U/mL and streptomycin 50 μg/mL) at 37° C. in a humidified atmosphere of 5% CO2 in air. Taxol (as a positive control, Sigma) and compounds were dissolved in DMSO (Sigma), and the final concentration of DMSO in the medium was 1%. Tumor cells were plated in 96-well plates at densities of about 2000 (A375) or 4000 (A549 and Colo205) cells/well of a 96-well plate and allowed to adhere/grow for 24 h. They were then treated with various concentrations of drug and incubated for 72 h. For MTT method, medium was then removed by inverting and tapping the plates. 100 μL of MTT (0.5 mg/ml) was added to each well followed by an incubated at 37° C. for 4 h. MTT was then removed and 200 μL of DMSO was added to each well, and the ODs at 570 nm were measured after a 5 second shaking cycle in a 96-well spectrophotometer. For MTS method, 20 μL MTS (CellTiter 96 Aqueous One Solution, Promega) was added to each well followed by an incubated at 37° C. for 2-4 h, solutions were then directly put in a 96-well spectrophotometer, and the ODs at 490 nm were measured.
(§2) All concentrations of compounds were tested in triplicate and controls were averaged over 4 wells. IC50 was calculated by plotting the concentration of compound vs the percentage of inhibition in treated wells using GraphPad Prism 5. […] The scale utilized in Tables […] is as follows: +++ less than 1000 nM; ++ between 1000 nM and 5000 nM; and + greater than 5000 nM. The scale utilized in Table 8 is as follows: +++ less than 2000 nM; ++ between 2000 nM and 5000 nM; and + greater than 5000 nM.

Assay [4] relates to A549 cells. Briefly: Inhibition of cancer cell growth, MTT or MTS assay, A549. It is filed as cell-based. The following applies: Homo sapiens, 72 h incubation. On the procedure:
as §1, §2

Bounds are passed on as bounds.

Sequence of BRAF V600E (P15056 whole entry V600E): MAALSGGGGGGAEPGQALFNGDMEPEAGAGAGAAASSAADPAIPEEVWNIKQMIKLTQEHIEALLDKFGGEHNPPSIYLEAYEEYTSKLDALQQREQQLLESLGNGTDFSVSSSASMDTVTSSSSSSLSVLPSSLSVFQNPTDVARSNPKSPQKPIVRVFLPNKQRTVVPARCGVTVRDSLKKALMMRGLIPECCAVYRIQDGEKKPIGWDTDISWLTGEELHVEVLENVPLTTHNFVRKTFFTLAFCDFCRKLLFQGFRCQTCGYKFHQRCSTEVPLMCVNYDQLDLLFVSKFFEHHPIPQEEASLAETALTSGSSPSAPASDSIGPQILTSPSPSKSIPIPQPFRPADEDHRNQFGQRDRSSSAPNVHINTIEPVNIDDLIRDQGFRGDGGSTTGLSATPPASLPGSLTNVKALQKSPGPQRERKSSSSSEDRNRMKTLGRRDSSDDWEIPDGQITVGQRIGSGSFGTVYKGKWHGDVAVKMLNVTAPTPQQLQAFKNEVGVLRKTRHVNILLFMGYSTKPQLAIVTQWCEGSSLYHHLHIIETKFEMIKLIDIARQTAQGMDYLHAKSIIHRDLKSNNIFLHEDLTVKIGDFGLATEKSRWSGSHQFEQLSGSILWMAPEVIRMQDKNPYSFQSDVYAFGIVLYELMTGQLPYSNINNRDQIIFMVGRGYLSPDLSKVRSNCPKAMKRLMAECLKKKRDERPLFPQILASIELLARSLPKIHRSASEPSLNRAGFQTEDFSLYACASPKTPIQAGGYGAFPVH
Sequence of KDR (VEGFR2) (P35968 20-1356): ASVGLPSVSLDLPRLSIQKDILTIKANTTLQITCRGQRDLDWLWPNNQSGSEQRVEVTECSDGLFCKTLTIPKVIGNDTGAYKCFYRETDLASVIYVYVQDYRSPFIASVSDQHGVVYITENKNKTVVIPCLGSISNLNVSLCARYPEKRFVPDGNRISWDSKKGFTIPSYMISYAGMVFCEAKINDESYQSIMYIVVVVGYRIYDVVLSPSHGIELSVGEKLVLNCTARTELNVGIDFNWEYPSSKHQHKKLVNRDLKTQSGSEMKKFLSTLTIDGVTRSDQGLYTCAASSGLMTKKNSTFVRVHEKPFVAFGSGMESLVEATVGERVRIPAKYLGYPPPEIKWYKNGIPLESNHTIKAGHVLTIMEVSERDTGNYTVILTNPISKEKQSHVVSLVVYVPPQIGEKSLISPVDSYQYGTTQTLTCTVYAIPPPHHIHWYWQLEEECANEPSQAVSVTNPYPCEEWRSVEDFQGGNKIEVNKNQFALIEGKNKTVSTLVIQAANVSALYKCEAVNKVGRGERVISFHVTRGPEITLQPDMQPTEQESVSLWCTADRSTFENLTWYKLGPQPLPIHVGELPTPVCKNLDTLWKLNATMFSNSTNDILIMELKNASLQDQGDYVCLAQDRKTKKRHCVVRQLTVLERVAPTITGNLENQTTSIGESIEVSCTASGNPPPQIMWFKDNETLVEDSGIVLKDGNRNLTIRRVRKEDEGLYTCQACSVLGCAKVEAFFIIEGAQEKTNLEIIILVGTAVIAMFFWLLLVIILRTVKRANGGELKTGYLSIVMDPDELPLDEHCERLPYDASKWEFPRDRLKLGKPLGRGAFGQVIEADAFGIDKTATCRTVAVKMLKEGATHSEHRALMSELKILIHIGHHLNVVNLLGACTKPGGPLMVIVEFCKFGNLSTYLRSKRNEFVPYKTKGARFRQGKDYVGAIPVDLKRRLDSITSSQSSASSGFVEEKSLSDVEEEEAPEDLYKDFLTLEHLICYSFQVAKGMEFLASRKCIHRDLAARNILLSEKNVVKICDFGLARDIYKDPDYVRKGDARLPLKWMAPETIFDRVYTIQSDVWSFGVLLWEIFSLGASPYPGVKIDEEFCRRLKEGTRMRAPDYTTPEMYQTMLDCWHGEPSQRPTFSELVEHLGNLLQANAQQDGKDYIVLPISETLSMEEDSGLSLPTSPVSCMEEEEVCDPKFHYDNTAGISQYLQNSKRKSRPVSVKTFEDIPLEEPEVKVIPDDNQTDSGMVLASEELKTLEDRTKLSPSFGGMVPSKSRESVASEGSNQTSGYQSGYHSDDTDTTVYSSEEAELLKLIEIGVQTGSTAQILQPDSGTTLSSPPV

With `O=C(Nc1ccc(F)c(Oc2ccc3ncc(N4CCOCC4)nc3c2)c1)c1cccc(F)c1` [Compound C025, 3-fluoro-N-(4-fluoro-3-((3-morpholinoquinoxalin-6-yl)oxy)phenyl)benzamide], the inhibition at 1 µM in assay [1] and in assay [2] was 70 to 89% throughout. Besides, the half-inhibitory concentration (IC50) in assay [3] and in assay [4] was > 5 µM in each case.
Consider `O=C(Nc1cc(F)cc(Oc2ccc3ncc(N4CCOCC4)nc3c2)c1)Nc1ccc(Cl)c(C(F)(F)F)c1` [Compound C033, 1-(4-chloro-3-(trifluoromethyl)phenyl)-3-(3-fluoro-5-((3-morpholinoquinoxalin-6-yl)oxy)phenyl)urea], for which the inhibition at 1 µM in assay [1] and in assay [2] was 70 to 89% each time. Also, the IC50 in assay [3] was < 1 µM; in assay [4], < 2 µM.
On to `O=C(Nc1ccc(F)c(C(F)(F)F)c1)Nc1ccc(Oc2ccc3nccnc3c2)cc1F` [Compound C098, 1-(4-fluoro-3-(trifluoromethyl)phenyl)-3-(2-fluoro-4-(quinoxalin-6-yloxy)phenyl)urea], for which the inhibition at 1 µM is 70 to 89% in assay [1] and < 70% in assay [2]. The IC50 in assay [3] is 1 to 5 µM; in assay [4], > 5 µM.
Regarding `O=C(Nc1cc(F)cc(Oc2ccc3ncc(N4CCOCC4)nc3c2)c1)c1ccc(Cl)c(C(F)(F)F)c1` [Compound C029, 4-chloro-N-(3-fluoro-5-((3-morpholinoquinoxalin-6-yl)oxy)phenyl)-3-(trifluoromethyl)benzamide], the inhibition at 1 µM in assay [1] and in assay [2] was 70 to 89% each time. Also, the IC50 lay in the range of 1 to 5 µM in assay [3] and 2 to 5 µM in assay [4].
Take `O=C(Nc1ccc(F)c(Oc2ccc3ncc(N4CCOCC4)nc3c2)c1)c1cccc(C(F)(F)F)c1` [Compound C026, N-(4-fluoro-3-((3-morpholinoquinoxalin-6-yl)oxy)phenyl)-3-(trifluoromethyl)benzamide]: the inhibition at 1 µM in assay [1] was 70 to 89%; in assay [2], > 89%. Moreover, the concentration for half-maximal inhibition (IC50) in assay [3] fell in the range of 1 to 5 µM; in assay [4], 2 to 5 µM.
With `O=C(Nc1ccc(Oc2ccc3ncc(N4CCOCC4)nc3c2)cc1)Nc1ccc(F)c(C(F)(F)F)c1` [Compound C086, 1-(4-fluoro-3-(trifluoromethyl)phenyl)-3-(4-((3-morpholinoquinoxalin-6-yl)oxy)phenyl)urea], the inhibition at 1 µM is 70 to 89% in assay [1] and > 89% in assay [2]. Also, the IC50 was 1 to 5 µM in assay [3] and 2 to 5 µM in assay [4].
The corresponding values for `O=C(Nc1cccc(Oc2ccc3ncc(N4CCOCC4)nc3c2)c1)Nc1cccc(C(F)(F)F)c1` [Compound C046, 1-(3-((3-morpholinoquinoxalin-6-yl)oxy)phenyl)-3-(3-(trifluoromethyl)phenyl)urea] are > 89%, 70 to 89%, 1 to 5 µM and 2 to 5 µM.
The corresponding values for `O=C(Nc1ccc(F)c(Oc2ccc3nccnc3c2)c1)c1ccc(Cl)c(C(F)(F)F)c1` [Compound C010, 4-chloro-N-(4-fluoro-3-(quinoxalin-6-yloxy)phenyl)-3-(trifluoromethyl)benzamide] are 70 to 89%, 70 to 89%, > 5 µM and 2 to 5 µM.
For `O=C(Nc1ccc(F)c(Oc2ccc3nccnc3c2)c1)c1cccc(C(F)(F)F)c1` [Compound C018, N-(4-fluoro-3-(quinoxalin-6-yloxy)phenyl)-3-(trifluoromethyl)benzamide] the same measures were > 89%, 70 to 89%, 1 to 5 µM and > 5 µM.
In the case of `O=C(Nc1cccc(F)c1)Nc1cc(F)cc(Oc2ccc3ncc(N4CCOCC4)nc3c2)c1` [Compound C031, 1-(3-fluoro-5-((3-morpholinoquinoxalin-6-yl)oxy)phenyl)-3-(3-fluorophenyl)urea], the inhibition at 1 µM in assay [1] was > 89%; in assay [2], < 70%. The IC50 in assay [3] and in assay [4] was > 5 µM throughout.
Take `O=C(Nc1cccc(C(F)(F)F)c1)Nc1ccc(F)c(Oc2ccc3nccnc3c2)c1` [Compound C024, 1-(4-fluoro-3-(quinoxalin-6-yloxy)phenyl)-3-(3-(trifluoromethyl)phenyl)urea]: the figures for the inhibition at 1 µM in assay [1] and in assay [2] were > 89% and 70 to 89%, respectively. The IC50 in assay [3] is 1 to 5 µM; in assay [4], < 2 µM.
For `O=C(Nc1cccc(C(F)(F)F)c1)Nc1ccc(F)c(Oc2ccc3ncc(N4CCOCC4)nc3c2)c1` [Compound C035, 1-(4-fluoro-3-((3-morpholinoquinoxalin-6-yl)oxy)phenyl)-3-(3-(trifluoromethyl)phenyl)urea] the same measures were 70 to 89%, 70 to 89%, < 1 µM and 2 to 5 µM.
For `O=C(Nc1cc(F)cc(Oc2ccc3nccnc3c2)c1)c1cccc(C(F)(F)F)c1` [Compound C015, N-(3-fluoro-5-(quinoxalin-6-yloxy)phenyl)-3-(trifluoromethyl)benzamide] the same measures were > 89%, < 70%, > 5 µM and > 5 µM.
For `O=C(Nc1cc(F)cc(Oc2ccc3ncc(N4CCOCC4)nc3c2)c1)Nc1cccc(C(F)(F)F)c1` [Compound C032, 1-(3-fluoro-5-((3-morpholinoquinoxalin-6-yl)oxy)phenyl)-3-(3-(trifluoromethyl)phenyl)urea] the same measures were 70 to 89%, 70 to 89%, 1 to 5 µM and 2 to 5 µM.
Take `O=C(Nc1cccc(F)c1)Nc1ccc(F)c(Oc2ccc3nccnc3c2)c1` [Compound C023, 1-(4-fluoro-3-(quinoxalin-6-yloxy)phenyl)-3-(3-fluorophenyl)urea]: the values for the inhibition at 1 µM in assay [1] and in assay [2] were > 89% and < 70%, respectively. The IC50 lay within 1 to 5 µM in assay [3] and 2 to 5 µM in assay [4].
The corresponding values for `O=C(Nc1ccc(Oc2ccc3nccnc3c2)cc1)Nc1ccc(Cl)c(C(F)(F)F)c1` [Compound C076, 1-(4-chloro-3-(trifluoromethyl)phenyl)-3-(4-(quinoxalin-6-yloxy)phenyl)urea] are 70 to 89%, 70 to 89%, 1 to 5 µM and > 5 µM.
In the case of `O=C(Nc1ccc(F)c(Oc2ccc3nccnc3c2)c1)Nc1ccc(Cl)c(C(F)(F)F)c1` [Compound C011, 1-(4-chloro-3-(trifluoromethyl)phenyl)-3-(4-fluoro-3-(quinoxalin-6-yloxy)phenyl)urea], the inhibition at 1 µM was < 70% in assay [1] and 70 to 89% in assay [2]. The IC50 in assay [3] was < 1 µM; in assay [4], < 2 µM.

The values above are taken from patent publication US10590106B2, “Certain chemical entities, compositions, and methods” (NeuPharma, Inc., priority 2012, dated 2020).
